Assay results as given in patent publication US20140004243A1, “SALTY TASTE ENHANCER” (AJINOMOTO CO., INC., priority 2011, published 2014).

Target: T1, Human ENaC δ, β and γ subunit (Homo sapiens, UniProt P51168+P51170+P51172)
T1 construct: expressed in transfected cells; host or cells: Xenopus laevis (African clawed frog) oocytes injected with cRNA
T1 sequence (P51172 1-802): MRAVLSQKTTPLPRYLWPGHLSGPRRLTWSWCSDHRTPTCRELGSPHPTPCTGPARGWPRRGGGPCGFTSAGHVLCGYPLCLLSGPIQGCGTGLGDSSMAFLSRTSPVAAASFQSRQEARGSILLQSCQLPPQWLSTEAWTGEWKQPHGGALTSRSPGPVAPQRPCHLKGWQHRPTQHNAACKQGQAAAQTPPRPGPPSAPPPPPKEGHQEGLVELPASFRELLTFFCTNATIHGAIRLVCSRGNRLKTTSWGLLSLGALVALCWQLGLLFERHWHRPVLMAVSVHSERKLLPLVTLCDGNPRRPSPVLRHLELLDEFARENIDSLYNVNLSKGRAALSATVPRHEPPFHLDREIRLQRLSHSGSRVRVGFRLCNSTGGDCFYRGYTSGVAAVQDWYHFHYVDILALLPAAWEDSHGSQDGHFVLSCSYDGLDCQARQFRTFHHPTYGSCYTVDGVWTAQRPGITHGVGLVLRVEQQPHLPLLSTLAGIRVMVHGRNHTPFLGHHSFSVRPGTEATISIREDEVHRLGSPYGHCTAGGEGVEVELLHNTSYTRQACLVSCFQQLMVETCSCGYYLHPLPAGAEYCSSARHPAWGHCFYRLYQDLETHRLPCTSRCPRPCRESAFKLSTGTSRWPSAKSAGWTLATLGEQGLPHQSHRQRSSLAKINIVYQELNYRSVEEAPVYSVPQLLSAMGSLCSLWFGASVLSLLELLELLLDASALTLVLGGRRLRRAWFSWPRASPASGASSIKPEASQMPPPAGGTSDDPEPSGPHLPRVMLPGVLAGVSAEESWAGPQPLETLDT
T1 sequence (P51168 1-640): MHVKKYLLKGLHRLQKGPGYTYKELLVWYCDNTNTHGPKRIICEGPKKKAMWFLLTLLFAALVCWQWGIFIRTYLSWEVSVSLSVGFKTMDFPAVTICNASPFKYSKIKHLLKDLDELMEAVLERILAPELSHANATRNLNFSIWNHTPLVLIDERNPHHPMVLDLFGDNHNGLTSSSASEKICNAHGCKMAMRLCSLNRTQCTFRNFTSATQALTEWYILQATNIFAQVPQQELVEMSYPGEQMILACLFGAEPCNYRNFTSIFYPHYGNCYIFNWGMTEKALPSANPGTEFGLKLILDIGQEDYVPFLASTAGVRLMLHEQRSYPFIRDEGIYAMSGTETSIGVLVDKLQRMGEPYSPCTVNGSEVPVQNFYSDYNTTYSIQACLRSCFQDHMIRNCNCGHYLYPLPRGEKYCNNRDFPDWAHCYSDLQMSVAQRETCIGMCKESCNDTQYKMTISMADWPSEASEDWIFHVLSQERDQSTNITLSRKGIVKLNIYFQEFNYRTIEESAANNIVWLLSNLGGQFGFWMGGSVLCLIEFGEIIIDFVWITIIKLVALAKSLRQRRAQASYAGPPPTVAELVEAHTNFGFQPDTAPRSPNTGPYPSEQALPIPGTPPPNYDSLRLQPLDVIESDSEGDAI
T1 sequence (P51170 1-649): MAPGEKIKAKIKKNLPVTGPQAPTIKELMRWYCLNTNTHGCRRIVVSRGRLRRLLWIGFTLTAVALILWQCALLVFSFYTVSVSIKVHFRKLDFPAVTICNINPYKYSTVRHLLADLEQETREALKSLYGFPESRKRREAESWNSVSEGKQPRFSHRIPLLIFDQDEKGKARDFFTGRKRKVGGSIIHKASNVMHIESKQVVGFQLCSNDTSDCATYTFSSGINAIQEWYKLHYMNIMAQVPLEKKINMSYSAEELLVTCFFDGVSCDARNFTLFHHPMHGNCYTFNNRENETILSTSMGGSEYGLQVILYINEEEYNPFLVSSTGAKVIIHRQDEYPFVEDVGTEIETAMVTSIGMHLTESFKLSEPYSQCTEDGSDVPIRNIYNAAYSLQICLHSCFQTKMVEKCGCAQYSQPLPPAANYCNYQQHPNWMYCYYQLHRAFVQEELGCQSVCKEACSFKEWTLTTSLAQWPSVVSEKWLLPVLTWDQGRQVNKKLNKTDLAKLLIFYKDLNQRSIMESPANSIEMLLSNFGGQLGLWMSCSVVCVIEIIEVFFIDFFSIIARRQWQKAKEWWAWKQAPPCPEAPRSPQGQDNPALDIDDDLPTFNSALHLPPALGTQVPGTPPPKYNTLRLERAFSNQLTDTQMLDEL
Assay: Measurement of ENaC activation potency (MED) in ENaC-expressing oocyte, Two Electrode Voltage Clamp
Type: cell-based
Conditions: minimum effective dose at which current started to increase; ENaC-expressing African clawed frog oocyte; smaller MED = higher ENaC activation potency
Procedure: ENaC activation current value, namely, the inward current in ENaC-expressing oocyte was measured as follows.
According to the method described in Motonao Nakamura, Takao Shimizu: Experiment of African clawed frog oocyte, Experimental Medicine Vol. 11, No. 3, 224-232 (1993), oocyte was collected from African clawed frog, […], and the current value was measured by a Two Electrode Voltage Clamp technique. In the present invention, ND96 (96 mM NaCl, 2 mM KCl, 1 mM MgCl2, 5 mM Hepes, 1.8 mM CaCl2, pH 7.6) was used instead of MBS buffer in the above-mentioned document. Injector NANOLITER 2000 manufactured by World Precision Instruments was used for microinjection, OpusXpress 6000A manufactured by Molecular Devices was used for current value measurement by a Two Electrode Voltage Clamp technique, and Clampfit 10.2 software manufactured by Molecular Devices was used for data analysis.
Human ENaC δ, β and γ subunit genes shown by SEQ ID NOs: 1, 2 and 3, respectively, in the Sequence Listing were each cloned into a plasmid vector, and used as a template DNA for cRNA synthesis. cRNA was synthesized using MEGAscript kit manufactured by Ambion and according to the method of the manual of the manufacturer.
A mixture of the same amount of ENaC […] cRNA (0.4 to 0.8 μg/μL), and β and γ subunits cRNA (0.4 μg/μL) was injected into the oocyte of African clawed frog at […] per oocyte, and the oocyte was cultured for 16 hr-72 hr. Thereafter, the oocyte was set on a measuring apparatus OpusXpress 6000A, the electrodes were inserted into the oocyte, the voltage was clamped at a level lower by −30 mV than the resting membrane potential by a Two Electrode Voltage Clamp technique, and the current value was measured.
To measure the ENaC activation potency, oocyte was stimulated with each test compound, and the minimum effective dose (hereinafter to be abbreviated as MED) of the compound at the time point when the electric current started to increase was measured. In this case, whichever smaller value of the minimum effective dose of the stimulation compound that increased the current value by not less than 10%, and the minimum effective concentration of the compound that increased, by not less than 25%, the electric current increase value due to the stimulation by 5 μM capsazepine (CAS NO.: 138977-28-3), as compared to the current value before addition of the compound and without stimulation, was taken as MED. A smaller MED means higher ENaC activation potency.
Each test compound was directly dissolved in ND96, or first dissolved in dimethyl sulfoxide (DMSO) to 100 mM, and then prepared by diluting the solution with ND96 to a concentration used for the evaluation. The concentration of the test compound in ND96 was prepared to various concentrations within the range of 0.1 nM to 300 μm.
ND96 as a perfusion fluid was flown at a rate of 0.5 mL/min through the measuring apparatus OpusXpress 6000A on which ENaC-expressing oocyte was set, the perfusion fluid was temporarily stopped every 3 minutes to add a test compound solution (0.25 mL) dissolved in ND96 at a rate of 0.5 mL/min. In this way, the test compound was contacted with ENaC-expressing oocyte, and whether ENaC is activated by the compound was examined by measuring the current value. After addition of the test compound, feeding of the perfusion fluid was resumed to wash away the compound to be ready for the next addition of the compound.
The compound was added successively from a low concentration to a high concentration to stimulate ENaC-expressing oocyte. The concentrations actually added was, for example, 1 nM, 3 nM, 10 nM, 30 nM, 100 nM, 300 nM; 1 μM, 3 μM, 10 μm, 30 μm, 100 μm, 300 μm; 1.2 μM, 6 μM, 30 μm, 150 μm of one test compound. The compound was added from low concentrations to high concentrations at 3 min intervals. […]

| Compound | MED [µM] |
| --- | --- |
| Oc1ccc(CNC(=S)NCCc2ccc(Cl)cc2)cc1O [Example 1] | 1 |
| Oc1cc2c(cc1O)CN(C(=S)NCCc1ccc(Cl)cc1)CC2 [Example 2] | 3 |
| COc1cc2c(cc1OC)CN(C(=S)NCCc1ccc(Cl)cc1)CC2 [Example 3] | 30 |
| COc1cc2c(cc1OC)CN(C(=S)NCCc1ccccc1)CC2 [Example 4] | 30 |
| CN(Cc1ccc(O)c(O)c1)C(=S)NCCc1ccc(Cl)cc1 [Example 5] | 1 |
| S=C(NCCc1ccc(Cl)cc1)NCCc1c[nH]c2ccccc12 [Example 6] | 30 |
| S=C(NCCc1ccccc1)NCCc1c[nH]c2ccccc12 [Example 7] | 5 |
| S=C(NCCc1ccccc1)Nc1ccccc1 [Example 9] | 3 |
| C[C@H](NC(=S)NCCc1ccccc1)c1ccccc1 [Example 12] | 10 |
| OCCNC(=S)NCc1ccccc1 [Example 15] | 30 |
| S=C(NCCc1ccccc1)N(Cc1ccccc1)Cc1ccccc1 [Example 22] | 30 |
| C[C@H](NC(=S)N[C@H](C)c1ccccc1)c1ccccc1 [Example 24] | 3.3 |
| C[C@@H](NC(=S)N[C@H](C)c1ccccc1)c1ccccc1 [Example 25] | 10 |
| S=C(NCc1ccccc1)N1CCc2ccccc2C1 [Example 27] | 10 |
| S=C(NCCc1ccccc1)NCC12CC3CC(CC(C3)C1)C2 [Example 32] | 10 |
| S=C(NCCc1ccccc1)NCc1nc2ccccc2[nH]1 [Example 33] | 3 |
| S=C(NCCc1c[nH]c2ccccc12)Nc1ccccc1 [Example 34] | 10 |
| C[C@@H](NC(=S)N/N=C/c1ccccc1O)c1ccccc1 [Example 35] | 3 |
| C[C@@H](NC(=S)NN)c1ccccc1 [Example 36] | 30 |
| COC(=O)c1ccccc1NC(=S)N(C)CCc1ccccc1 [Example 37] | 3 |
| CN(CCc1ccccc1)C(=S)Nc1ccccc1C(=O)O [Example 38] | 0.1 |
| O=C(O)c1ccccc1NC(=S)Nc1ccccc1 [Example 39] | 1 |
| Oc1cc2c(cc1O)CN(C(=S)NCCc1ccccc1)CC2 [Example 41, N-(2-phenylethyl)-3,4-dihydro-6,7-dihydroxyisoquinoline-2(1H)-carbothioamide] | 3 |
| CN(Cc1ccc(O)c(O)c1)C(=S)NCCc1ccccc1 [Example 42, 1-(3,4-dihydroxybenzyl)-1-methyl-3-(2-phenylethyl)thiourea] | 1 |
| Oc1ccc(CNC(=S)NCc2ccccc2)cc1O [Example 45] | 3 |
| Oc1ccc(CNC(=S)Nc2ccccc2)cc1O [Example 46] | 3 |

Continued, values first:

| MED [µM] | Compound |
| --- | --- |
| 1 | S=C(NCCc1ccccc1)NCc1ccccc1 [Example 8] |
| 10 | S=C(NCCc1ccccc1)NCCc1ccccc1 [Example 13] |
| 3 | S=C(NCCc1ccccn1)NCc1ccccc1 [Example 14] |
| 3 | COc1ccc(CCNC(=S)NCc2ccccc2)cc1 [Example 16] |
| 3 | Oc1ccc(CCNC(=S)NCc2ccccc2)cc1 [Example 17] |
| 10 | S=C(NCCCc1ccccc1)NCc1ccccc1 [Example 18] |
| 3 | S=C(NCCc1ccccc1)NCc1cccc2ccccc12 [Example 20] |
| 1 | S=C(NCCc1ccccc1)NCc1ccco1 [Example 21] |
| 10 | O=C(O)c1ccc(CNC(=S)NCCc2ccccc2)cc1 [Example 23] |
| 3.3 | S=C(NCCc1ccccc1)NCc1ccc2c(c1)OCO2 [Example 26] |
| 1 to 3 | COc1ccccc1CNC(=S)NCCc1ccccc1 [Example 28] |
| 3.3 | COc1ccccc1CCNC(=S)NCc1ccccc1 [Example 29] |
| 30 | FC(F)(F)c1ccc(CNC(=S)NCCc2ccccc2)cc1 [Example 30] |
| 1 | S=C(NCCc1ccccc1)NCc1cccnc1 [Example 31] |
| 1 | Oc1ccc(CNC(=S)NCCc2ccccc2)cc1O [Example 40, 1-(3,4-dihydroxybenzyl)-3-(2-phenylethyl)thiourea] |
| 1 | Oc1ccc(CNC(=S)NCCc2ccccc2)cc1 [Example 43] |
| 1 | Oc1cccc(CNC(=S)NCCc2ccccc2)c1 [Example 44] |
